Publication PMC5218480 (PLoS ONE, 2017)

System: MV-4-11 cells
Assay: Gene expression microarray analysis (Affymetrix PrimeView) and GSEA
Format: cell-based, human
Design: RFU PODN (11730768_x_at) / Fold change /veh PODN (11730768_x_at) / RFU LINC00158 (11744669_a_at) / Fold change /veh LINC00158 (11744669_a_at) / RFU DUSP10 (11751237_a_at) / Fold change /veh DUSP10 (11751237_a_at) / RFU ID3 (11757404_x_at) / Fold change /veh ID3 (11757404_x_at) / RFU PLEKHG5 (11737974_s_at) / Fold change /veh PLEKHG5 (11737974_s_at) / RFU LRRC4B (11730491_at) / Fold change /veh LRRC4B (11730491_at) / RFU GIMAP4 (11747438_a_at) / Fold change /veh GIMAP4 (11747438_a_at) / RFU KRT8 (11758183_x_at) / Fold change /veh KRT8 (11758183_x_at) / RFU CNN1 (11734310_a_at) / Fold change /veh CNN1 (11734310_a_at) / RFU VPS37D (11726825_at) / Fold change /veh VPS37D (11726825_at) / RFU C10orf10 (11716522_x_at) / Fold change /veh C10orf10 (11716522_x_at) / RFU KIR2DL2 /// KIR2DL4 /// KIR2DL5A /// KIR2DL5B /// KIR2DS1 /// KIR2DS2 /// KIR2DS3 /// KIR2DS4 /// KIR3DL3 /// KIR3DL3 /// KIR3DS1 (11738374_at) / Fold change /veh KIR2DL2 /// KIR2DL4 /// KIR2DL5A /// KIR2DL5B /// KIR2DS1 /// KIR2DS2 /// KIR2DS3 /// KIR2DS4 /// KIR3DL3 /// KIR3DL3 /// KIR3DS1 (11738374_at) / RFU C1QL1 (11718748_at) / Fold change /veh C1QL1 (11718748_at) / RFU TMPRSS4 (11747572_a_at) / Fold change /veh TMPRSS4 (11747572_a_at) / RFU HAMP (11756126_x_at) / Fold change /veh HAMP (11756126_x_at) / RFU RNFT2 (11725882_a_at) / Fold change /veh RNFT2 (11725882_a_at) / RFU NR4A2 (11747474_a_at) / Fold change /veh NR4A2 (11747474_a_at) / RFU ABCC12 (11746883_a_at) / Fold change /veh ABCC12 (11746883_a_at) / RFU TMEM136 (11760407_x_at) / Fold change /veh TMEM136 (11760407_x_at) / RFU CLDN22 /// WWC2 (11732394_at) / Fold change /veh CLDN22 /// WWC2 (11732394_at) / RFU HLA-DPB1 (11760878_x_at) / Fold change /veh HLA-DPB1 (11760878_x_at) / RFU SPINT1 (11716480_a_at) / Fold change /veh SPINT1 (11716480_a_at) / RFU GAP43 (11754022_s_at) / Fold change /veh GAP43 (11754022_s_at) / RFU A4GNT (11735810_at) / Fold change /veh A4GNT (11735810_at) / RFU PRB3 (11715151_x_at) / Fold change /veh PRB3 (11715151_x_at) / RFU TUBB4B (11761932_at) / Fold change /veh TUBB4B (11761932_at) / RFU CAPN14 (11732068_a_at) / Fold change /veh CAPN14 (11732068_a_at) / RFU TMCC2 (11721928_a_at) / Fold change /veh TMCC2 (11721928_a_at) / RFU IRGQ (11745062_a_at) / Fold change /veh IRGQ (11745062_a_at) / RFU FAM174B (11720279_a_at) / Fold change /veh FAM174B (11720279_a_at) / RFU TMPRSS4 (11748680_a_at) / Fold change /veh TMPRSS4 (11748680_a_at) / RFU FAM212B (11763350_a_at) / Fold change /veh FAM212B (11763350_a_at) / RFU PLEKHG5 (11743358_a_at) / Fold change /veh PLEKHG5 (11743358_a_at) / RFU ZSCAN30 (11745921_a_at) / Fold change /veh ZSCAN30 (11745921_a_at) / RFU CMKLR1 (11741424_a_at) / Fold change /veh CMKLR1 (11741424_a_at) / RFU LOC101060620 /// MAPK8IP1 (11723275_at) / Fold change /veh LOC101060620 /// MAPK8IP1 (11723275_at) / RFU SPTSSB (11747773_x_at) / Fold change /veh SPTSSB (11747773_x_at) / RFU PRSS12 (11739890_at) / Fold change /veh PRSS12 (11739890_at) / RFU BIN1 (11741810_x_at) / Fold change /veh BIN1 (11741810_x_at) / RFU WNT11 (11732464_a_at) / Fold change /veh WNT11 (11732464_a_at) / RFU C10orf10 (11716521_a_at) / Fold change /veh C10orf10 (11716521_a_at) / RFU C5orf56 (11738089_at) / Fold change /veh C5orf56 (11738089_at) / RFU CYB561 (11721691_x_at) / Fold change /veh CYB561 (11721691_x_at) / RFU ANKRD19P (11752326_a_at) / Fold change /veh ANKRD19P (11752326_a_at) / RFU OR2T12 /// OR2T33 /// OR2T8 (11738714_s_at) / Fold change /veh OR2T12 /// OR2T33 /// OR2T8 (11738714_s_at) / RFU VCAN (11748164_a_at) / Fold change /veh VCAN (11748164_a_at) / RFU JSRP1 (11732532_at) / Fold change /veh JSRP1 (11732532_at) / RFU KRTAP10-11 (11738290_x_at) / Fold change /veh KRTAP10-11 (11738290_x_at) / RFU MYO3A (11730013_a_at) / Fold change /veh MYO3A (11730013_a_at) / RFU EBF3 (11725865_a_at) / Fold change /veh EBF3 (11725865_a_at) / RFU CAMK2N1 (11719241_x_at) / Fold change /veh CAMK2N1 (11719241_x_at) / RFU C5orf56 (11738088_a_at) / Fold change /veh C5orf56 (11738088_a_at) / RFU OLFML3 (11715873_a_at) / Fold change /veh OLFML3 (11715873_a_at) / RFU LOC100653217 /// NTM (11731650_a_at) / Fold change /veh LOC100653217 /// NTM (11731650_a_at) / RFU MAPK11 (11762145_a_at) / Fold change /veh MAPK11 (11762145_a_at) / RFU FIZ1 (11724087_x_at) / Fold change /veh FIZ1 (11724087_x_at) / RFU OASL (11726364_x_at) / Fold change /veh OASL (11726364_x_at) / RFU SOX15 (11748057_x_at) / Fold change /veh SOX15 (11748057_x_at) / RFU CD79A (11719716_a_at) / Fold change /veh CD79A (11719716_a_at) / RFU HIST1H1D (11736915_at) / Fold change /veh HIST1H1D (11736915_at) / RFU CASKIN2 (11723855_a_at) / Fold change /veh CASKIN2 (11723855_a_at) / RFU LOC730098 (11760151_x_at) / Fold change /veh LOC730098 (11760151_x_at) / RFU OR4N2 (11742367_at) / Fold change /veh OR4N2 (11742367_at) / RFU PRRT2 (11749266_a_at) / Fold change /veh PRRT2 (11749266_a_at) / RFU SNX32 (11753110_a_at) / Fold change /veh SNX32 (11753110_a_at) / RFU CDHR5 (11726645_a_at) / Fold change /veh CDHR5 (11726645_a_at) / RFU RCAN1 (11760418_a_at) / Fold change /veh RCAN1 (11760418_a_at) / RFU FAM167A (11723789_a_at) / Fold change /veh FAM167A (11723789_a_at) / RFU FAM26E (11764081_at) / Fold change /veh FAM26E (11764081_at) / RFU ISYNA1 (11749810_s_at) / Fold change /veh ISYNA1 (11749810_s_at) / RFU ACY1 (11761880_at) / Fold change /veh ACY1 (11761880_at) / RFU 11764098_at / Fold change /veh 11764098_at / RFU SAMD14 (11745864_x_at) / Fold change /veh SAMD14 (11745864_x_at) / RFU NPB (11741838_a_at) / Fold change /veh NPB (11741838_a_at) / RFU TMPRSS6 (11731388_a_at) / Fold change /veh TMPRSS6 (11731388_a_at) / RFU KRTAP10-2 (11738614_at) / Fold change /veh KRTAP10-2 (11738614_at) / RFU ARHGAP8 /// PRR5-ARHGAP8 (11727945_x_at) / Fold change /veh ARHGAP8 /// PRR5-ARHGAP8 (11727945_x_at) / RFU KRTAP5-7 /// NADSYN1 (11734609_at) / Fold change /veh KRTAP5-7 /// NADSYN1 (11734609_at) / RFU RASL12 (11751679_a_at) / Fold change /veh RASL12 (11751679_a_at) / RFU CDKN2B (11736163_a_at) / Fold change /veh CDKN2B (11736163_a_at) / RFU PRF1 (11729649_at) / Fold change /veh PRF1 (11729649_at) / RFU, ZNF638 /// ZNF638-IT1 / Fold change vs veh, ZNF638 /// ZNF638-IT1 / RFU, PANK3 / Fold change vs veh, PANK3 / RFU, SH3YL1 / Fold change vs veh, SH3YL1 / RFU, ZEB2 / Fold change vs veh, ZEB2 / RFU, NRIP1 / Fold change vs veh, NRIP1 / RFU, PTTG1IP / Fold change vs veh, PTTG1IP / RFU, CAPN2 / Fold change vs veh, CAPN2 / RFU, MED14 / Fold change vs veh, MED14 / RFU, SNORA58 / Fold change vs veh, SNORA58 / RFU, C1orf63 / Fold change vs veh, C1orf63 / RFU, LRRFIP1 / Fold change vs veh, LRRFIP1 / RFU, NDUFAF7 / Fold change vs veh, NDUFAF7 / RFU, SLC12A2 / Fold change vs veh, SLC12A2 / RFU, IBTK / Fold change vs veh, IBTK / RFU, ESF1 / Fold change vs veh, ESF1 / Fold change vs veh, TMEM50B / RFU, TAOK1 / Fold change vs veh, TAOK1 / RFU, ACBD3 / Fold change vs veh, ACBD3 / RFU, TMA16 / Fold change vs veh, TMA16 / RFU, RWDD3 / Fold change vs veh, RWDD3 / RFU, BCAT1 / Fold change vs veh, BCAT1 / RFU, EDEM3 / Fold change vs veh, EDEM3 / RFU, TMEM33 / Fold change vs veh, TMEM33 / RFU, WDR75 / Fold change vs veh, WDR75 / RFU, AHCTF1 / Fold change vs veh, AHCTF1 / RFU, TFRC / Fold change vs veh, TFRC / RFU, ZDHHC17 / Fold change vs veh, ZDHHC17 / RFU, NOM1 / Fold change vs veh, NOM1 / RFU, ARL8B / Fold change vs veh, ARL8B / RFU, ZBTB11 / Fold change vs veh, ZBTB11 / RFU, TAMM41 / Fold change vs veh, TAMM41 / RFU, KIAA1704 /// LOC100996395 / Fold change vs veh, KIAA1704 /// LOC100996395 / RFU, ING1 / Fold change vs veh, ING1 / RFU, TRMT61B / Fold change vs veh, TRMT61B / RFU, FUBP3 / Fold change vs veh, FUBP3 / RFU, TP53 / Fold change vs veh, TP53 / RFU, TNKS2 / Fold change vs veh, TNKS2 / RFU, ZFP14 / Fold change vs veh, ZFP14 / RFU, ACTR2 / Fold change vs veh, ACTR2 / RFU, PPP3R1 / Fold change vs veh, PPP3R1 / RFU, PIK3R1 / Fold change vs veh, PIK3R1 / RFU, HNRNPA1 / Fold change vs veh, HNRNPA1 / RFU, RNF170 / Fold change vs veh, RNF170 / RFU, ZNF28 / Fold change vs veh, ZNF28 / RFU, RNGTT / Fold change vs veh, RNGTT / RFU, OGT / Fold change vs veh, OGT / RFU, BRD1 / Fold change vs veh, BRD1 / RFU, MARS / Fold change vs veh, MARS / RFU, ZNF655 / Fold change vs veh, ZNF655 / RFU, FAHD1 / Fold change vs veh, FAHD1 / RFU, BDP1 / Fold change vs veh, BDP1 / RFU, LRRCC1 / Fold change vs veh, LRRCC1 / RFU, ARID1A / Fold change vs veh, ARID1A / RFU, ZNF146 / Fold change vs veh, ZNF146 / RFU, ZNF330 / Fold change vs veh, ZNF330 / RFU, GPN3 / Fold change vs veh, GPN3 / RFU, C9orf123 / Fold change vs veh, C9orf123 / RFU, N4BP2L2 / Fold change vs veh, N4BP2L2 / RFU, ARFIP1 / Fold change vs veh, ARFIP1 / RFU, FAM179B / Fold change vs veh, FAM179B / RFU, BCL10 / Fold change vs veh, BCL10 / RFU, UHRF1BP1L / Fold change vs veh, UHRF1BP1L / RFU, BET1 / Fold change vs veh, BET1 / RFU, CNOT2 / Fold change vs veh, CNOT2 / RFU, ZNF268 / Fold change vs veh, ZNF268 / Fold change vs veh, ZNF507 / RFU, DGCR2 / Fold change vs veh, DGCR2 / RFU, WDSUB1 / Fold change vs veh, WDSUB1 / Fold change vs veh, HSP90B1 /// MIR3652 / RFU, ADSS / Fold change vs veh, ADSS / RFU, GK / Fold change vs veh, GK / RFU, ZNF148 / Fold change vs veh, ZNF148 / RFU, TAF9 / Fold change vs veh, TAF9 / RFU, SLC1A5 / Fold change vs veh, SLC1A5 / RFU, SLMO2 / Fold change vs veh, SLMO2 / RFU, ABCC4 / Fold change vs veh, ABCC4 / RFU, LOC101060439 /// RAP1B / Fold change vs veh, LOC101060439 /// RAP1B / RFU, RFX7 / Fold change vs veh, RFX7 / RFU, GTPBP10 / Fold change vs veh, GTPBP10 / RFU, CNEP1R1 / Fold change vs veh, CNEP1R1 / RFU, BIVM-ERCC5 /// ERCC5 / Fold change vs veh, BIVM-ERCC5 /// ERCC5 / RFU, ILF3 / Fold change vs veh, ILF3 / RFU 11762660_at / Fold change /veh 11762660_at / RFU VCAN (11757783_s_at) / Fold change /veh VCAN (11757783_s_at) / RFU DDX43 (11728927_at) / Fold change /veh DDX43 (11728927_at) / RFU KRT8 (11758188_x_at) / Fold change /veh KRT8 (11758188_x_at) / RFU NKD1 (11759106_at) / Fold change /veh NKD1 (11759106_at) / RFU SRD5A1 (11742802_a_at) / Fold change /veh SRD5A1 (11742802_a_at) / RFU TPSAB1 /// TPSB2 (11721975_s_at) / Fold change /veh TPSAB1 /// TPSB2 (11721975_s_at) / RFU GSTM3 (11746129_a_at) / Fold change /veh GSTM3 (11746129_a_at) / RFU IL23R (11737362_x_at) / Fold change /veh IL23R (11737362_x_at) / RFU TMEM51 (11727254_a_at) / Fold change /veh TMEM51 (11727254_a_at) / RFU PIWIL2 (11732686_x_at) / Fold change /veh PIWIL2 (11732686_x_at) / RFU ORM1 (11744905_x_at) / Fold change /veh ORM1 (11744905_x_at) / RFU CCDC152 (11743942_at) / Fold change /veh CCDC152 (11743942_at) / RFU ECM1 (11717891_a_at) / Fold change /veh ECM1 (11717891_a_at) / RFU IL23R (11748794_a_at) / Fold change /veh IL23R (11748794_a_at) / RFU TNFAIP8L3 (11732012_x_at) / Fold change /veh TNFAIP8L3 (11732012_x_at) / RFU MBOAT4 (11741988_at) / Fold change /veh MBOAT4 (11741988_at) / RFU 11764193_at / Fold change /veh 11764193_at / RFU TMEM53 (11763286_at) / Fold change /veh TMEM53 (11763286_at) / RFU MAGEB2 (11727129_at) / Fold change /veh MAGEB2 (11727129_at) / RFU TMEM200A (11744735_a_at) / Fold change /veh TMEM200A (11744735_a_at) / RFU CCDC152 (11751479_a_at) / Fold change /veh CCDC152 (11751479_a_at) / RFU FAM211A (11726209_a_at) / Fold change /veh FAM211A (11726209_a_at) / RFU RGS16 (11746705_a_at) / Fold change /veh RGS16 (11746705_a_at) / RFU VCAN (11755009_s_at) / Fold change /veh VCAN (11755009_s_at) / RFU RHOB (11743442_s_at) / Fold change /veh RHOB (11743442_s_at) / RFU RGS16 (11720943_a_at) / Fold change /veh RGS16 (11720943_a_at) / RFU RGS16 (11720944_at) / Fold change /veh RGS16 (11720944_at) / RFU, VPS4B / Fold change vs veh, VPS4B / RFU, CREB1 / Fold change vs veh, CREB1 / RFU, DNAJC13 / Fold change vs veh, DNAJC13 / RFU, GNAQ / Fold change vs veh, GNAQ / RFU, CDK5R1 / Fold change vs veh, CDK5R1 / RFU, ZRANB3 / Fold change vs veh, ZRANB3 / RFU, CUL4A / Fold change vs veh, CUL4A / RFU, CCNY / Fold change vs veh, CCNY / RFU, UFL1 / Fold change vs veh, UFL1 / RFU, COG3 / Fold change vs veh, COG3 / RFU, DIAPH2 / Fold change vs veh, DIAPH2 / RFU, SKA2 / Fold change vs veh, SKA2 / RFU, AFF3 / Fold change vs veh, AFF3 / RFU, LMF1 / Fold change vs veh, LMF1 / RFU, IPO11 / Fold change vs veh, IPO11 / RFU, DFFB / Fold change vs veh, DFFB / RFU, FOXP1 / Fold change vs veh, FOXP1 / RFU, CARD8 / Fold change vs veh, CARD8 / RFU, STRN3 / Fold change vs veh, STRN3 / RFU, ADK / Fold change vs veh, ADK / RFU, RASSF2 / Fold change vs veh, RASSF2 / RFU, WIPF1 / Fold change vs veh, WIPF1 / RFU, LARP1B / Fold change vs veh, LARP1B / RFU, RASA1 / Fold change vs veh, RASA1 / RFU, RB1 / Fold change vs veh, RB1 / RFU, PPFIA1 / Fold change vs veh, PPFIA1 / RFU, MAT2A / Fold change vs veh, MAT2A / RFU, CCT5 / Fold change vs veh, CCT5 / RFU, WDR92 / Fold change vs veh, WDR92 / RFU, CUX1 / Fold change vs veh, CUX1 / RFU, TTC7A / Fold change vs veh, TTC7A / RFU, TMEM135 / Fold change vs veh, TMEM135 / RFU, DEPTOR / Fold change vs veh, DEPTOR / RFU, CPM / Fold change vs veh, CPM / RFU, DNAJB6 / Fold change vs veh, DNAJB6 / RFU, CACNA2D3 / Fold change vs veh, CACNA2D3 / RFU, DTX4 / Fold change vs veh, DTX4 / RFU, TFCP2 / Fold change vs veh, TFCP2 / RFU, GMCL1 /// GMCL1P1 / Fold change vs veh, GMCL1 /// GMCL1P1 / RFU, AEBP2 / Fold change vs veh, AEBP2 / RFU, SNHG1 /// SNORD22 /// SNORD25 /// SNORD26 /// SNORD27 /// SNORD28 /// SNORD29 /// SNORD31 / Fold change vs veh, SNHG1 /// SNORD22 /// SNORD25 /// SNORD26 /// SNORD27 /// SNORD28 /// SNORD29 /// SNORD31 / Fold change (Aza/veh), C12orf56 (ProbeSet 11735607_a_at) / Fold change (ACY-1035/veh), C12orf56 (ProbeSet 11735607_a_at) / Fold change (Aza/veh), FGFR1OP (ProbeSet 11751329_s_at) / Fold change (ACY-1035/veh), FGFR1OP (ProbeSet 11751329_s_at) / Fold change (Aza/veh), VPS36 (ProbeSet 11739960_a_at) / Fold change (ACY-1035/veh), VPS36 (ProbeSet 11739960_a_at) / RFU SYPL1 (11715823_x_at) / Fold change /veh SYPL1 (11715823_x_at) / RFU IGFBP7 (11715501_s_at) / Fold change /veh IGFBP7 (11715501_s_at) / RFU REEP3 (11722064_at) / Fold change /veh REEP3 (11722064_at) / RFU IGLL1 (11728026_x_at) / Fold change /veh IGLL1 (11728026_x_at): dose or concentration left out as unconfirmed
Conditions: MV-4-11 cells, 48 hours

With `Nc1ccc(-c2cccs2)cc1NC(=O)c1ccc2c(c1)cc(C1CC1)n2CCN1CCOCC1` [ACY-1035] the “Fold change /veh RCAN1 (11760418_a_at)” value was 1.01.
